Experimental data published in ChEMBL document CHEMBL5579824, “Novel Hsp90-Targeting PROTACs: Enhanced synergy with cisplatin in combination therapy of cervical cancer” (Eur J Med Chem, 2024).
Calls of active or inactive are those of the source. No cut-off for these calls is given here.

Key:
[1] = Toxicity in BALB/c nude mouse xenografted with human SiHa cells assessed as body weight weight loss at 2 mg/kg, ip; type: organism-based; conditions: in vivo
SiHa [2] = assay: Synergistic antiproliferative activity against human SiHa cells assessed as combination index at 0.1 uM incubated for 72 hrs in presence of 0.03 uM cisplatin by CCK-8 assay; type: functional
[3] = molecular target: T1, Protein cereblon/Heat shock protein HSP 90-alpha/Heat shock protein HSP 90-beta (Homo sapiens) (UniProt P07900+P08238+Q96SW2); assay: Protac activity at CRBN/Hsp90 in human Ca-Ski cells assessed as induction of Hsp90 degradation at 0.05 uM incubated for 10 hrs by Western blot analysis; type: cell-based
SiHa [4] = assay: Synergistic antiproliferative activity against human SiHa cells assessed as combination index at 0.75 uM incubated for 72 hrs in presence of 3.16 uM cisplatin by CCK-8 assay; type: functional
SiHa [5] = assay: Synergistic antiproliferative activity against human SiHa cells assessed as combination index at 0.1 uM incubated for 72 hrs in presence of 1 uM cisplatin by CCK-8 assay; type: functional
SiHa [6] = assay: Synergistic antiproliferative activity against human SiHa cells assessed as combination index at 1 uM incubated for 72 hrs in presence of 0.01 uM cisplatin by CCK-8 assay; type: functional
SiHa [7] = assay: Inhibition of cell migration in human SiHa cells at 0.5 uM measured after 48 hrs by microscope based wound healing assay relative to control; type: functional
SiHa [8] = assay: Synergistic antiproliferative activity against human SiHa cells assessed as combination index at 1 uM incubated for 72 hrs in presence of 0.1 uM cisplatin by CCK-8 assay; type: functional
SiHa [9] = assay: Synergistic antiproliferative activity against human SiHa cells assessed as combination index at 0.05 uM incubated for 72 hrs in presence of 0.01 uM cisplatin by CCK-8 assay; type: functional
SiHa [10] = assay: Synergistic antiproliferative activity against human SiHa cells assessed as combination index at 5 uM incubated for 72 hrs in presence of 0.03 uM cisplatin by CCK-8 assay; type: functional
SiHa [11] = assay: Induction of apoptosis in human SiHa cells assessed as early apoptotic cells at 10 uM incubated after 48 hrs by annexin V-FITC/PI staining based flow cytometry (reference value: 2.05 %); type: functional
[12] = molecular target: T1, Protein cereblon/Heat shock protein HSP 90-alpha/Heat shock protein HSP 90-beta (Homo sapiens); assay: Protac activity at CRBN/Hsp90 in human SiHa cells assessed as induction of Hsp90 degradation at 0.05 uM incubated for 2 hrs in presence of SNX-5422 by Western blot analysis; type: cell-based
SiHa [13] = assay: Synergistic antiproliferative activity against human SiHa cells assessed as combination index at 5 uM incubated for 72 hrs in presence of 31.62 uM cisplatin by CCK-8 assay; type: functional
SiHa [14] = assay: Antitumor activity against human SiHa cells xenografted in BALB/c nude mouse assessed as reduction in Ki67 protein expression at 2 mg/kg, ip by immunohistochemical analysis; type: functional, organism-based
SiHa [15] = assay: Induction of apoptosis in human SiHa cells assessed as early apoptotic cells at 1 uM incubated after 48 hrs by annexin V-FITC/PI staining based flow cytometry (reference value: 2.05 %); type: functional
SiHa [16] = assay: Induction of cell cycle arrest in human SiHa cells assessed as accumulation of cells at G1 pahse at 2.5 uM incubated after 48 hrs by PI staining based flow cytometry (reference value: 83.90 %); type: functional
[17] = molecular target: T1, Protein cereblon/Heat shock protein HSP 90-alpha/Heat shock protein HSP 90-beta (Homo sapiens); assay: Protac activity at CRBN/Hsp90 in human SiHa cells assessed as induction of Hsp90 degradation at 1 uM incubated for 36 hrs by Western blot analysis; type: cell-based
SiHa [18] = assay: Induction of cell cycle arrest in human SiHa cells assessed as increase in accumulation of cells at G2/M pahse incubated after 48 hrs by PI staining based flow cytometry; type: functional; conditions: dose 0.05-10 µM
SiHa [19] = assay: Synergistic antiproliferative activity against human SiHa cells assessed as combination index at 5 uM incubated for 72 hrs in presence of 3.16 uM cisplatin by CCK-8 assay; type: functional
SiHa [20] = assay: Induction of apoptosis in human SiHa cells assessed as late apoptotic cells at 10 uM incubated after 48 hrs by annexin V-FITC/PI staining based flow cytometry (reference value: 6.93 %); type: functional
SiHa [21] = assay: Synergistic antiproliferative activity against human SiHa cells assessed as combination index at 10 uM incubated for 72 hrs in presence of 31.62 uM cisplatin by CCK-8 assay; type: functional
SiHa [22] = assay: Induction of apoptosis in human SiHa cells assessed as necrotic cells at 0.05 uM incubated after 48 hrs by annexin V-FITC/PI staining based flow cytometry (reference value: 0.08 %); type: functional
SiHa [23] = assay: Induction of apoptosis in human SiHa cells assessed as viable cells at 10 uM incubated after 48 hrs by annexin V-FITC/PI staining based flow cytometry (reference value: 90.4 %); type: functional; conditions: read-out: Activity
SiHa [24] = assay: Induction of cell cycle arrest in human SiHa cells assessed as accumulation of cells at S pahse at 2.5 uM incubated after 48 hrs by PI staining based flow cytometry (reference value: 8.51 %); type: functional
SiHa [25] = assay: Induction of cell cycle arrest in human SiHa cells assessed as accumulation of cells at G2/M pahse at 10 uM incubated after 48 hrs by PI staining based flow cytometry (reference value: 7.37 %); type: functional
SiHa [26] = assay: Inhibition of cell migration in human SiHa cells at 0.05 uM measured for 24 to 48 hrs by microscope based wound healing assay; type: functional; conditions: time 24-48 hrs
SiHa [27] = assay: Synergistic antiproliferative activity against human SiHa cells assessed as combination index at 1 uM incubated for 72 hrs in presence of 0.03 uM cisplatin by CCK-8 assay; type: functional
SiHa [28] = assay: Synergistic antiproliferative activity against human SiHa cells assessed as combination index at 0.75 uM incubated for 72 hrs in presence of 0.01 uM cisplatin by CCK-8 assay; type: functional
SiHa [29] = assay: Synergistic antiproliferative activity against human SiHa cells assessed as combination index at 0.5 uM incubated for 72 hrs in presence of 3.16 uM cisplatin by CCK-8 assay; type: functional
SiHa [30] = assay: Induction of cell cycle arrest in human SiHa cells assessed as accumulation of cells at S pahse at 10 uM incubated after 48 hrs by PI staining based flow cytometry (reference value: 8.51 %); type: functional
SiHa [31] = assay: Induction of cell cycle arrest in human SiHa cells assessed as accumulation of cells at S pahse at 1 uM incubated after 48 hrs by PI staining based flow cytometry (reference value: 8.51 %); type: functional
SiHa [32] = assay: Induction of apoptosis in human SiHa cells assessed as necrotic cells at 10 uM incubated after 48 hrs by annexin V-FITC/PI staining based flow cytometry (reference value: 0.08 %); type: functional
SiHa [33] = assay: Induction of apoptosis in human SiHa cells assessed as late apoptotic cells at 0.05 uM incubated after 48 hrs by annexin V-FITC/PI staining based flow cytometry (reference value: 6.93 %); type: functional
SiHa [34] = assay: Synergistic antiproliferative activity against human SiHa cells assessed as combination index at 0.75 uM incubated for 72 hrs in presence of 0.1 uM cisplatin by CCK-8 assay; type: functional

Q: Which Activity [1] does the source give for `CC1(C)CC(=O)c2c(C(F)(F)F)nn(-c3ccc(C(N)=O)c(N[C@H]4CC[C@H](OC(=O)CNC(=O)CCCCCCCNc5cccc6c5CN(C5CCC(=O)NC5=O)C6=O)CC4)c3)c2C1` (some centres undefined) here?
A: Non-Toxic

Q: What about the CI (SiHa [2]) of the same compound?
A: 0.49

Q: What about the Activity [3] of the same compound?
A: Active

Q: And the CI (SiHa [4])?
A: 0.17

Q: What about the CI (SiHa [5]) of the same compound?
A: 0.8

Q: And the CI (SiHa [6])?
A: 0.23

Q: What about the inhibition at 0.5 µM (SiHa [7]) of the same compound?
A: ~100%

Q: What about the CI (SiHa [8]) of the same compound?
A: 0.21

Q: What about the CI (SiHa [9]) of the same compound?
A: 1.83

Q: What about the CI (SiHa [10]) of the same compound?
A: 1.02

Q: What about the Activity (SiHa [11]) of the same compound?
A: 20.83%

Q: And the Activity [12]?
A: inactive

Q: What about the CI (SiHa [13]) of the same compound?
A: 0.53

Q: What about the Activity (SiHa [14]) of the same compound?
A: Active

Q: And the Activity (SiHa [15])?
A: 16.5%

Q: And the Activity (SiHa [16])?
A: 53.29%

Q: What about the Activity [17] of the same compound?
A: inactive

Q: What about the Activity (SiHa [18]) of the same compound?
A: Dose-Dependent Effect

Q: What about the CI (SiHa [19]) of the same compound?
A: 0.65

Q: What about the Activity (SiHa [20]) of the same compound?
A: 29.96%

Q: What about the CI (SiHa [21]) of the same compound?
A: 0.97

Q: And the Activity (SiHa [22])?
A: 0.1%

Q: And the viability at 10 µM (SiHa [23])?
A: 51.9%

Q: And the Activity (SiHa [24])?
A: 21.18%

Q: What about the Activity (SiHa [25]) of the same compound?
A: 24.06%

Q: What about the inhibition (SiHa [26]) of the same compound?
A: Active

Q: What about the CI (SiHa [27]) of the same compound?
A: 0.22

Q: What about the CI (SiHa [28]) of the same compound?
A: 0.2

Q: And the CI (SiHa [29])?
A: 0.14

Q: What about the Activity (SiHa [30]) of the same compound?
A: 13.6%

Q: And the Activity (SiHa [31])?
A: 13.56%

Q: And the Activity (SiHa [32])?
A: 0.27%

Q: What about the Activity (SiHa [33]) of the same compound?
A: 7.4%

Q: What about the CI (SiHa [34]) of the same compound?
A: 0.18
